Entries after “also recorded” stand apart in the source; their conditions may differ. Non-standard residues stand in square brackets, D forms with d. Primed or numbered codes have the meaning given here. No end group written: not given here. PEG5′ = linker of 5 PEG units between residues
Legend:
SIRPα = biological target: T1, SIRPα (Homo sapiens, UniProt P78324); experiment: CD47-Fc Inhibition Assay on THP-1 macrophages; format: binding; conditions: 1 μM or 50 μM peptide, 2 μg/mL CD47-Fc, anti-Fc fluorescence
T1 construct: THP-1 monocytes were PMA differentiated in RPMI for 48 h; endogenous in cells; host or cells: PMA-differentiated THP-1 macrophages
Protocol: CD47-Fc Inhibition Assay. THP-1 monocytes were PMA differentiated in RPMI for 48 h. The macrophages were washed with RPMI media and then incubated with 1 μM or 50 μM of nano- Self peptides for 1 h at 37° C., 5% CO2, and 95% humidity. After washing, the macrophages were incubated with Human Trustain FcX Fc receptor blocking solution (Biolegend) for 10 min at RT and then incubated with 2 μg/mL CD47-Fc fusion protein (ACRO Biosystems) for 1 h at 37° C., 5% CO2, and 95% humidity. As a negative control, B6H12 was pre-mixed with CD47-Fc at 4° C. on a rotator for 1 h. The macrophages were then washed and incubated with 0.5 μg/mL goat anti-human IgG Fc DyLight 488 (Thermo Fischer) for 1 h at 37° C., 5% CO2, and 95% humidity. Finally, the macrophages were washed, fixed, Hoechst 33342 stained, and imaged as described above.
To determine whether the nS peptides bind to SIRPα, nS-FF and nS-F4 were used as soluble competitive inhibitors of saturable CD47-Fc fusion protein binding to macrophages (FIG. 20). Addition of multivalent nS peptides was followed by Fc-receptor blockade to minimize Fc-driven binding of construct. Afterwards, CD47-Fc was added and then finally anti-Fc fluorescence imaging was performed (FIG. 20, left).

[1] = tested on: human macrophages (opsonized K562 cancer cells); experiment: Phagocytosis of opsonized K562 erythroleukemia cells by human macrophages; format: cell-based
Protocol: In vitro phagocytosis assay. Fresh human RBCs were washed twice with 50 mM EDTA (Thermo Fischer) in PBS (Gibco) then twice with 5% FBS in PBS. RBCs were opsonized with 20 μg/mL rabbit anti-human RBC antibody (Rockland) in 5% FBS for 1 hour at RT with shaking. For CD47 blocked RBCs, 5 μg/mL of mouse anti-human CD47 (B6H12; BD Biosciences) were added. Thereafter, RBCs were washed with PBS three times and stained with PKH26 dye (1:800 dilution in PBS; Sigma) for 1 hour at RT with shaking in the dark. RBCs were washed and resuspended in PBS.
THP-1 monocytes were PMA differentiated in RPMI for 48 hours. Macrophages were then washed with RPMI media three times. For SIRPα blocked THP-1 macrophages, 20 nM, 1 μM or 50 μM of the nano—Self peptides were incubated with the THP-1 macrophages for 1 hour at 37 ° C., 5% CO2 and 95% humidity. Those THP-Is were then washed with RPMI three times.
CO2 and 95% humidity. Macrophages were then washed with RPMI three times. Adherent and uninternalized RBCs were lysed with water for 30 seconds followed by immediate replacement with RPMI media. In order to distinguish remaining adherent RBCs from internalized RBCs, opsonized RBCs were stained with AlexaFluor 647 donkey anti-rabbit (binds to rabbit polyclonal opsonin on RBC; Invitrogen) IgG (1:1000) while unopsonized, CD47 blocked RBCs were stained with AlexaFluor 647 donkey anti-mouse (binds to mouse monoclonal anti-CD47 on RBCs; Invitrogen) IgG (1:1000) for 30 minutes. After washing, macrophages were fixed with 4% formaldehyde for 15 minutes at RT, washed with PBS, stained with 1 μg/mL Hoechst 33342, and then washed with PBS again. Fluorescence imaging was performed as described elsewhere herein and quantification was done using ImageJ. At least 200 cells were analyzed and experiments were repeated at least three times.
The anti-RBC successfully opsonized and triggered phagocytosis of K562 cells by macrophages (FIGS. 2A, 2F and 2E). […] Interaction of the nS peptides with K562 cells is likely minimal due to the relative lack of SIRPα expression. […] For both opsonized RBCs and opsonized K562s (FIGS. 2D, 2F), the hyperphagocytosis that is achieved with soluble F- and V-nS peptides matches the recently measured increases for disruption of both (i) the trans interactions between CD47 on a target and macrophage SIRPα and also, importantly, (ii) the cis interactions between CD47 and SIRPα on the same macrophage (FIG. 2G-left). Expression profiling of macrophages confirms these cells generally express CD47 at roughly similar levels to other cell types (FIG. 15). […] A preliminary conclusion is that nS-FF and the other substituted peptides, which were designed to bind SIRPα, inhibit both the cis and trans interactions between SIRPα and CD47 ([…]).

In the case of “(VTELFREG-PEG5)2-K (VTELFREG[PEG5′]K[PEG5′]GERFLETV; not fully specified; also: bivalent lysine core) [nS-FF, bivalent nS-F linked through PEG5 linkers to a C-terminal Lys]”, the “level of inhibition of CD47-Fc binding” value (SIRPα) is reported as “as inhibitory as anti-CD47”, the “increase of phagocytosis relative to opsonized and CD47 blocked K562 cells” value ([1]; saturating peptide) is reported as “nearly doubled; also recorded: about two-fold” and the “macrophages engulfing opsonized K562 cells at saturation” value ([1]; saturation) is reported as roughly 40%.
